Where a SMILES comes first, the peptide text is derived from it. [ ]: non-standard residue; d: D form. The star is where a group is joined. dPhe(4-Cl) = N[C@H](Cc1ccc(Cl)cc1)C(=O)O; d2Nal = N[C@H](Cc1ccc2ccccc2c1)C(=O)O; Lys(iPr) = CC(C)NCCCC[C@H](N)C(=O)O; d3Pal = N[C@H](Cc1cccnc1)C(=O)O; Nicotinoyl = O=C(c1cccnc1)*
Experiments:
[1] = Antide concentrations in daily blood samples (Example 2); assay type: in vivo, cynomolgus monkeys; settings: regimen A: four daily injections of 10 mg/kg sc; test period >40 days
Protocol: (§1) Normally cycling cynomolgus monkeys were studied in one of two regimens. Regimen A comprised a series of initial large loading doses of Antide (10 mg/kg, sc), with no further Antide administration. […] In each regimen GnRH replacement was initiated 4 days after the first Antide injection at a rate of 5 μg/pulse, with one 1 min pulse/hour. The amplitude was subsequently raised to 10 μg/pulse after approximately 21 days. Daily blood samples were drawn for later determination of estradiol, progesterone and Antide concentrations.

[2] = test system: endogenous gonadotropin secretion (LH, FSH); assay: Inhibition of endogenous gonadotropin secretion by Antide and response to pulsatile GnRH replacement in ovariectomized monkeys (Example 1); assay type: in vivo, cynomolgus monkeys; settings: Antide-suppressed monkeys; GnRH 5 μg/pulse, 1 pulse/hour, from day 17; day after initiation
Protocol: Three long-term ovariectomized cynomolgus monkeys fitted with indwelling jugular vein canulae were utilized for this study. Daily blood samples were drawn under ketamine-induced anesthesia (10 mg/kg, I.M.), for 90 days. On study days 11-16 Antide (3 mg/kg, in propylene/glycol:water, 1:1) was administered via subcutaneous injection. GnRH replacement therapy (5 μg/pulse, 1 pulse/hour given over 1 min, via a Pulsamat infusion pump) was initiated on day 17 and continued for one week then withheld for one week, then reinitiated for one week in a 7 day on, 7 day off regimen for a total of four exposures.

[3] = test system: ovulation; estradiol and progesterone concentrations; assay: Ovulation induction by pulsatile GnRH replacement during Antide suppression of endogenous cycles (Example 2); assay type: in vivo, cynomolgus monkeys
Protocol: A second experiment was performed to establish that pulsatile GnRH replacement therapy would induce ovulation in the face of antagonist-induced suppression of endogenous cycles.
as §1

[4] = test system: tonic gonadotropin (FSH/LH) levels; settings: ovariectomized monkeys treated with Antide; cited from earlier work

Compound	concentration of Antide, always remaining above, throughout test period [1]	gonadotropin concentrations during GnRH replacement therapy [2]	E2 response, ovulation and luteal P4 ([3]; regimen A, GnRH restarted at 10 μg/pulse)	E2 response to initial pulsatile GnRH replacement ([3]; regimen B, GnRH 5 μg/pulse)	E2 response, ovulation and luteal P4 ([3]; regimen B, GnRH increased to 10 μg/pulse)	gonadotropin response to a large i.v. bolus of GnRH [4]
CC(=O)N[C@H](Cc1ccc2ccccc2c1)C(=O)N[C@H](Cc1ccc(Cl)cc1)C(=O)N[C@H](Cc1cccnc1)C(=O)N[C@@H](CO)C(=O)N[C@@H](CCCCNC(=O)c1cccnc1)C(=O)N[C@H](CCCCNC(=O)c1cccnc1)C(=O)N[C@@H](CC(C)C)C(=O)N[C@@H](CCCCNC(C)C)C(=O)N1CCC[C@H]1C(=O)N[C@H](C)C(N)=O [Antide, N--Ac--D--2--Nal--D--pClPhe--D--3---Pal--Ser--NicLys--D--NicLys--Leu--ILys--Pro--D--Ala--NH2] (Ac-[d2Nal][dPhe(4-Cl)][d3Pal]SK(Nicotinoyl)[dK](Nicotinoyl)L[Lys(iPr)]P[dA]-NH2)	above 15 ng/ml	–	–	–	–	–
gonadotropin releasing hormone (QHWSYGLRPG; Gonadoliberin-1; UniProt P01148 24-33, looked up) [GnRH]	–	greater than 100 ng/ml	rapid and sustained elevation of E2 concentrations culminating in ovulation and normal luteal phase P4 (progesterone) concentrations	elevations of E2 to those characteristic of the late follicular phase	rapid rise in E2 concentrations to normal preovulatory levels culminating in ovulation with subsequent normal luteal P4 production	transient increase in gonadotropin levels which subsequently fell back to the inhibited state
